Source: the supplement of paper PMC10307832

What was measured:
Assay in all cases: relative viability (nuclei count vs DMSO), 5 days (fraction); higher = more cells survive
IU1-47 + Luminespib = compound: CC1=CC(=C(N1C2=CC=C(C=C2)Cl)C)C(=O)CN3CCCCC3 [IU1-47] + CCNC(=O)c1noc(-c2cc(C(C)C)c(O)cc2O)c1-c1ccc(CN2CCOCC2)cc1 [Luminespib] (partner 0.01 µM)
Outline: (§1)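 A single step with final 0.05% Triton X-100, 1% formaldehyde and 1 ug/ml Hoechst fixed the cells and stained nuclei 5 days after treatment. Lung cancer cell lines in 1536-well plates had been treated by pin tool the day after seeding with one drug alone or a fixed anchor-drug dose plus five library-drug doses (not always all listed) in √10 steps, and nuclei were counted on 4× images. Relative viability is the ratio of nuclei in treated wells to nuclei in vehicle wells, taken as the median of duplicate plates.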

FG-4592 + Pictilisib = compound: Cc1nc(C(=O)NCC(=O)O)c(O)c2ccc(Oc3ccccc3)cc12 [FG-4592] + CS(=O)(=O)N1CCN(Cc2cc3nc(-c4cccc5[nH]ncc45)nc(N4CCOCC4)c3s2)CC1 [Pictilisib] (partner 1 µM)
Outline: as §1

FG-4592 + AZD7762 = compound: Cc1nc(C(=O)NCC(=O)O)c(O)c2ccc(Oc3ccccc3)cc12 [FG-4592] + NC(=O)Nc1cc(-c2cccc(F)c2)sc1C(=O)N[C@H]1CCCNC1 [AZD7762] (partner 0.2 µM)
Outline: as §1

IU1-47 + Olaparib = compound: CC1=CC(=C(N1C2=CC=C(C=C2)Cl)C)C(=O)CN3CCCCC3 [IU1-47] + O=C(c1cc(Cc2n[nH]c(=O)c3ccccc23)ccc1F)N1CCN(C(=O)C2CC2)CC1 [Olaparib] (partner 8 µM)
Outline: as §1

Cell Line	relative viability (IU1-47 + Luminespib; first compound 0.08 µM)	relative viability (IU1-47 + Luminespib; first compound 0.253 µM)	relative viability (IU1-47 + Luminespib; first compound 0.8 µM)	relative viability (IU1-47 + Luminespib; first compound 2.53 µM)	relative viability (IU1-47 + Luminespib; first compound 8 µM)	relative viability (FG-4592 + Pictilisib; first compound 0.08 µM)	relative viability (FG-4592 + Pictilisib; first compound 0.253 µM)	relative viability (FG-4592 + Pictilisib; first compound 0.8 µM)	relative viability (FG-4592 + Pictilisib; first compound 2.53 µM)	relative viability (FG-4592 + Pictilisib; first compound 8 µM)	relative viability (FG-4592 + AZD7762; first compound 0.08 µM)	relative viability (FG-4592 + AZD7762; first compound 0.253 µM)	relative viability (FG-4592 + AZD7762; first compound 2.53 µM)	relative viability (FG-4592 + AZD7762; first compound 8 µM)	relative viability (IU1-47 + Olaparib; first compound 0.08 µM)	relative viability (IU1-47 + Olaparib; first compound 0.253 µM)	relative viability (IU1-47 + Olaparib; first compound 0.8 µM)	relative viability (IU1-47 + Olaparib; first compound 2.53 µM)	relative viability (IU1-47 + Olaparib; first compound 8 µM)	relative viability (FG-4592 + AZD7762; first compound 0.8 µM)
PC-3 [JPC-3]	0.822	0.695	0.723	0.466	0.603	0.717	0.7	0.59	0.764	0.791	0.802	0.762	0.726	0.8	1.19	1.2	1.14	1.11	1.04	–
HOP-62	0.957	0.964	1.04	0.925	1.06	0.831	0.55	0.455	0.651	0.657	0.501	0.509	0.472	0.529	0.428	0.622	0.404	0.554	0.604	0.476
HARA	0.858	0.98	1.66	–	0.49	0.329	0.292	–	0.46	0.304	–	–	0.251	0.431	1.02	–	0.703	0.632	0.567	–
NCI-H838	0.31	0.347	0.262	0.243	0.282	0.481	0.396	0.363	0.494	0.433	0.899	0.888	0.981	0.916	0.809	0.799	0.774	0.911	0.58	0.976
NCI-H1755	0.273	0.465	0.325	0.479	0.451	0.303	0.4	0.306	0.442	0.444	0.408	0.621	0.491	0.446	0.914	0.872	0.883	0.948	0.829	0.361
NCI-H322M	1.03	0.929	0.922	0.879	0.715	0.379	0.481	0.481	0.512	0.583	–	0.518	0.629	0.43	0.838	0.838	0.813	0.845	0.757	0.497
NCI-H3122	–	0.08	0.0904	0.108	0.106	0.735	0.57	0.511	0.583	0.605	0.985	0.922	1.02	0.952	0.644	0.665	0.692	0.692	0.696	1.06
NCI-H2087	0.194	0.166	0.18	–	0.163	0.934	0.707	0.903	0.809	0.836	1.34	1.24	–	1.38	0.587	0.633	0.563	0.646	0.476	1.32
LC-2-ad	1.23	1.04	0.883	0.766	1.15	0.487	0.372	0.456	0.414	0.374	0.912	0.833	0.817	0.83	0.726	0.711	0.673	–	0.732	0.831
